Experimental data from patent EP0311632B1, “SURFACE ACTIVE LACTAMS” (priority 1986, dated 1988).
Like-named read-outs stand apart in the source and are kept apart here. Marks after values point to notes of the source that are not given here. Blank lines part the entries; values can stand above or below the compound they belong to.

Columns and labels:
[1] = Cloud point of 10% aqueous solutions; type: physicochemical; settings: 10% aqueous solution
Excerpt: The higher the cloud point, the more soluble, i.e. hydrated, the surfactant.

[2] = pH of product, 10% in 50/50 isopropyl alcohol-water; type: physicochemical
Excerpt: Into a stainless steel autoclave was introduced n-octylamine (2342 g) and butyrolactone (1704 g) in a mole ratio of about 1:1.1.

[3] = Viscosity (Brookfield Viscometer, LVT Model); type: physicochemical
Experimental: The viscosities in cps of the following surfactants at various concentration in distilled water were measured at about 25°C. using a Brookfield Viscometer (LVT Model).
The above viscosity of alkyl pyrrolidones and their aqueous solutions were obtained usinq a #2 spindle at a speed of 30 rpm, and a #2 spindle at a speed of 60 rpm respectively.

[4] = Surface tension of aqueous solutions (Fisher Surface Tensiomat, ring tensiometer); type: physicochemical; settings: 25°C.
Experimental: Surface tension measurements in triplicate were made for each of the N-alkylpyrrolidone species listed below in Table 1, using a Fisher Surface Tensiomat (Model #21, Der Nouy Ring Tensionometer). Each experiment was carried out as follows.
Distilled water solutions at concentrations noted in Table 1 were prepared for each of the following surfactants in 100 ml glass flasks. The solutions were stirred for about 15 minutes until homogeneous solutions were obtained. The surface tensions of these solutions were then measured.

[5] = Titration of 10% dispersions with HCl to a clear solution (protonation); type: physicochemical; settings: clear solution after HCl titration
Excerpt: Ten percent dispersions of the C₈ and C₁₀ pyrrolidones were titrated to a clear solution using HCl.
To obtain a rough figure for the protonation equilibrium constant, the equilibrium [octyl pyrrolidone] was taken at 5 x 10⁻³m.

[6] = Surface activity parameters calculated from surface tension measurements (Gibbs adsorption equation); type: physicochemical; settings: for am: area of the molecule at the interface; for CMC: critical micelle concentration, calculated from surface tension data; for pC-20: negative logarithm of surfactant concentration required to lower surface tension by 20 dynes/cm
Experimental: The critical micelle concentration (CMC), the surface concentration at the liquid-air interface ( ? ), the area of the test molecule at the interface (am) and the effectiveness of adsorption at the interface (pC-20) were determined on the above surface tension data reported in Example XXI, Table 1.
More specifically, the CMC of the N-(n alkyl) pyrrolidones tested show a minimum (4.7 x 10⁻⁵) at the C₁₂ chain length. Using the empirical equation for n-lauryl (C₁₂) alcohol ethoxylate, log CCMC (= A)^1 (+ B)^1 n [formula] where A¹ = 4.4, B¹ = 0.046, and n = number of ethylene oxide at 23°C., the pyrrolidone ring would be expected to behave as 2 ethylene oxide units. […] The hydrophilic-lipophilic balance (HLB) of N-n-dodecyl pyrrolidone, based on the assumption that the pyrrolidone ring simulates 2-6 ethylene oxide units is 6.5 - 11 using the equation % ethylene oxide/5 - HLB.
The surface concentration ? , in moles per cm indicates the maximum surface concentration of surfactant, i.e. at equilibrium above the CMC, and is obtained by an estimation of a constant d γ /dc* from the surface tension vs. concentration. […] The mono disperse nature of the hydrophobe and hydrophile is believed to contribute to high surface concentrations by maximizing enthropy of packing. * d γ/dc = the change in surface tension with respect to the change in surfactant concentration.

[7] = Solubility of N-alkyl pyrrolidones, 10% by weight in various liquids; type: physicochemical; parameters: key to 10% PRODUCT SOLUBILITY: I: insoluble; PS: partially soluble (cloudy translucent); S: soluble, clear; *: Soluble with slight haze; **: Very slight precipitation; settings: for 10% PRODUCT SOLUBILITY: 25°C ± 1°C; for solubility in water: room temperature, 10% concentration, in words
Experimental: Separate 10% by weight solutions of N-alkyl-2-pyrrolidone in the following liquids were made up in 50 ml glass beakers and the solubilities at about 25°C. were noted and reported in following Table 9.

[8] = Density, heat of vaporization and solubility parameter; type: physicochemical
[9] = value starred: literature value; cited from earlier work
[10] = 100%, about 25°C., #2 spindle 30 rpm
[11] = product as such, stated in description and preparation examples
[12] = 0.001% solution in distilled water
[13] = 0.01% solution in distilled water
[14] = 0.1% solution in distilled water
[15] = 2% in distilled water, about 25°C., #2 spindle 60 rpm
[16] = 4% in distilled water, about 25°C., #2 spindle 60 rpm
[17] = 6% in distilled water, about 25°C., #2 spindle 60 rpm
[18] = 8% in distilled water, about 25°C., #2 spindle 60 rpm
[19] = 10% in distilled water, about 25°C., #2 spindle 60 rpm
[20] = 0.0001% solution in distilled water

SMILES: O=C1CCCN1C1CCCCC1 [N-cyclohexyl pyrrolidone, reference compound]
Cloud Point [1]: 55 °C

SMILES: CCCCCCCCCCN1CCCC1=O [N-decyl-2-pyrrolidone]
pH [2]: 5.4 | VISCOSITY [3, 10]: 12.0 CPS | VISCOSITY [3, 11]: 12 cps | Cloud Point [1]: 19 °C | Surface Tension of Aqueous Solutions [4, 12]: 51.0 dynes/cm | Surface Tension of Aqueous Solutions [4, 13]: 27.8 dynes/cm | Surface Tension of Aqueous Solutions [4, 14]: 27.5 dynes/cm | Surface Tension of Aqueous Solutions ([4]; 1.0% solution in distilled water): 27.6 dynes/cm | Solution pH [5]: <0.1 | am [6]: 36.1 (Å)^2 | CMC [6]: 440 µM | pC-20 [6]: 4.51 | 10% PRODUCT SOLUBILITY ([7]; Acetone): S | 10% PRODUCT SOLUBILITY ([7]; Ethanol): S | 10% PRODUCT SOLUBILITY ([7]; Heptane): S | 10% PRODUCT SOLUBILITY ([7]; Paraffin Oil): S | 10% PRODUCT SOLUBILITY ([7]; Perchloroethylene): S | 10% PRODUCT SOLUBILITY ([7]; Stoddard Solvent): S | 10% PRODUCT SOLUBILITY ([7]; Water): PS* | 10% PRODUCT SOLUBILITY ([7]; Xylene): S | solubility in water [7]: slightly soluble

SMILES: CCCCCCCCCCCCN1CCCC1=O [N-dodecyl-2-pyrrolidone]
pH [2]: 7.3 | VISCOSITY [3, 15]: 6.5 CPS | VISCOSITY [3, 16]: 7.5 CPS | VISCOSITY [3, 17]: 12.5 CPS | VISCOSITY [3, 18]: 16.0 CPS | VISCOSITY [3, 19]: 20.0 CPS | VISCOSITY [3, 10]: 17.0 CPS | VISCOSITY [3, 11]: 17 cps | Cloud Point [1]: 15-19 °C | Cloud Point ([1]; listed as dodecyl): 15-19 °C | Cloud Point ([1]; listed as dodecyl pyrrolidone): 31-32 °C | Surface Tension of Aqueous Solutions [4, 20]: 55.4 dynes/cm | Surface Tension of Aqueous Solutions [4, 12]: 29.9 dynes/cm | Surface Tension of Aqueous Solutions [4, 13]: 27.6 dynes/cm | Surface Tension of Aqueous Solutions [4, 14]: 26.7 dynes/cm | am [6]: 36.9 (Å)^2 | CMC [6]: 47 µM | pC-20 [6]: 5.27 | 10% PRODUCT SOLUBILITY ([7]; Acetone): S | 10% PRODUCT SOLUBILITY ([7]; Ethanol): S | 10% PRODUCT SOLUBILITY ([7]; Heptane): S | 10% PRODUCT SOLUBILITY ([7]; Paraffin Oil): PS | 10% PRODUCT SOLUBILITY ([7]; Perchloroethylene): S | 10% PRODUCT SOLUBILITY ([7]; Stoddard Solvent): PS | 10% PRODUCT SOLUBILITY ([7]; Water): S* | 10% PRODUCT SOLUBILITY ([7]; Xylene): S | solubility in water [7]: completely soluble

SMILES: CCCCCCCCN1CCCC1=O [N-octyl-2-pyrrolidone]
pH [2]: 6.5 | VISCOSITY [3, 10]: 8.0 CPS | VISCOSITY [3, 11]: 8 cps | Cloud Point [1]: < 0 °C | Surface Tension of Aqueous Solutions [4, 12]: 68.4 dynes/cm | Surface Tension of Aqueous Solutions [4, 13]: 54.25 dynes/cm | Surface Tension of Aqueous Solutions [4, 14]: 30.4 dynes/cm | Solution pH [5]: 0.22 | am [6]: 39.5 (Å)^2 | pC-20 [6]: 3.20 | 10% PRODUCT SOLUBILITY ([7]; Acetone): S | 10% PRODUCT SOLUBILITY ([7]; Ethanol): S | 10% PRODUCT SOLUBILITY ([7]; Heptane): S | 10% PRODUCT SOLUBILITY ([7]; Paraffin Oil): S | 10% PRODUCT SOLUBILITY ([7]; Perchloroethylene): S | 10% PRODUCT SOLUBILITY ([7]; Stoddard Solvent): S** | 10% PRODUCT SOLUBILITY ([7]; Water): I | 10% PRODUCT SOLUBILITY ([7]; Xylene): S | solubility in water [7]: insoluble

SMILES: CCCCCCCCCCCCCCN1CCCC1=O [N-tetradecyl-2-pyrrolidone]
pH [2]: 5.9 | VISCOSITY [3, 15]: 24.5 CPS | VISCOSITY [3, 16]: 66.0 CPS | VISCOSITY [3, 17]: 96.0 CPS | VISCOSITY [3, 18]: 100.0 CPS | VISCOSITY [3, 19]: 145.0 CPS | VISCOSITY [3, 10]: 20.0 CPS | VISCOSITY [3, 11]: 2 cps | Cloud Point [1]: 33 °C | Cloud Point ([1]; listed as tetradecyl): 33 °C | Cloud Point ([1]; listed as tetradecyl pyrrolidone): 33-34 °C | Surface Tension of Aqueous Solutions [4, 20]: 47.5 dynes/cm | Surface Tension of Aqueous Solutions [4, 12]: 30.4 dynes/cm | Surface Tension of Aqueous Solutions [4, 13]: 26.5 dynes/cm | Surface Tension of Aqueous Solutions [4, 14]: 26.4 dynes/cm | am [6]: 53.6 (Å)^2 | CMC [6]: 57 µM | pC-20 [6]: 6.25 | Γm ([6]; surface concentration at the liquid-air interface): 3.1 10^-10 mol/cm² | 10% PRODUCT SOLUBILITY ([7]; Acetone): S | 10% PRODUCT SOLUBILITY ([7]; Ethanol): S | 10% PRODUCT SOLUBILITY ([7]; Heptane): S | 10% PRODUCT SOLUBILITY ([7]; Paraffin Oil): S | 10% PRODUCT SOLUBILITY ([7]; Perchloroethylene): S | 10% PRODUCT SOLUBILITY ([7]; Stoddard Solvent): S | 10% PRODUCT SOLUBILITY ([7]; Water): S* | 10% PRODUCT SOLUBILITY ([7]; Xylene): S | solubility in water [7]: completely soluble | Heat of Vaporizn. [8]: 19.7 k cal/mole | Solubility Parameter (δ) [8]: 7.8

Cloud Point [1]: insoluble
SMILES: CCCCCCCCCCCCCCCCN1CCCC1=O [hexadecyl, N-hexadecyl-2-pyrrolidone]

SMILES: CCCCCCCCCCCC[N+](C)(C)[O-] [lauryl dimethyl amine oxide, reference compound]
CMC [9]: 2.1 x 10^-3* ml^-1 | am [6]: 59.3 (Å)^2 | pC-20 [6]: 5.23
